The target of this assay is T1, KcsA (Streptomyces lividans, UniProt P0A334).
T1 sequence (P0A334 1-160): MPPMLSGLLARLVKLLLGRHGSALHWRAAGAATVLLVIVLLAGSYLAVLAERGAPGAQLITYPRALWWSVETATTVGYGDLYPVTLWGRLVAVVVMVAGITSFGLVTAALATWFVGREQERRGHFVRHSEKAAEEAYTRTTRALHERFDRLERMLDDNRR
Kind of assay: Trp fluorescence quenching, purified reconstituted wild-type KcsA. The assay is classed as binding.

For `CCCCCCCCC(Br)C(Br)CCCCCCCC(=O)O` (stereo not shown) [BrSA, 9,10-dibromostearic acid], the “Trp fluorescence quenching, purified reconstituted wild-type KcsA; binding const” value was found to be 0.67 ± 0.04.

The values are drawn from paper PMC3336937 (2012).
